{
  "source": "patent US7399786B2",
  "about": "“Derivatives of amino acids for treatment of obesity and related disorders” (Bexel Pharmaceuticals, Inc., priority 2005, dated 2008)",
  "key": {"[1]": {"experiment": "High fat diet induced obesity (DIO) model", "assay_type": "in vivo, C57BL/6J male mice", "settings": "DIO mice", "procedure": "Six week old C57BL/6J male mice were fed with high fat (60%) diet for 14 days. From day 15 onwards animals were treated with compound 9 at a dose of 50 mg/kg body weight or sibutramine (5 mg/kg bw) for 60 days. All the animals were dosed once daily during morning hours up to day 15. From day 16 to end of the study animals were dosed during evening hours."}, "IL-6": {"tested_on": "IL-6", "experiment": "IL-6 inhibition in hPBMC, LPS challenge, ELISA", "assay_type": "cell-based, human", "settings": "1 μM, LPS 100 ng/mL for 20 hours", "procedure": "(§1) Cells (1×10^6/mL) were challenged with lipopolysaccharides (LPS) at a concentration of (100 ng/mL) for 20 hours. Cell supernatant was analyzed for the presence of IL-6 and IL-1β by antibody directed enzyme-linked immunoassay (R & D Systems, MN, USA)."}, "3T3-L1 cells": {"tested_on": "3T3-L1 cells", "experiment": "PPARγ agonist induced adipocyte differentiation, Oil red O staining", "assay_type": "cell-based, mouse", "settings": "11 days", "procedure": "Adipogenesis is defined as the production of fat laden adipocytes from fibroblast cells. All known PPARγ agonists induce adipogenesis after a long term of treatment. […] Cells were cultured for 11 days and every 48 h fresh drug was given while changing the media."}, "LPS induced NO": {"tested_on": "LPS induced NO", "experiment": "Inhibition of LPS induced NO in mouse peritoneal macrophages", "assay_type": "cell-based", "settings": "compound 1 hour then LPS 10 μg/mL for 48 hrs", "procedure": "Mouse peritoneal macrophages were isolated by injecting warm PBS in the peritoneum and cells were tapped out with syringe and stored in a tube. After two washes with PBS, cells were plated in 96 well plates and incubated with compound 9 for 1 hour and then challenged with LPS (10 μg/mL) for 48 hrs. Supernatant was assayed for NO by ELISA kit (R&D Biosystems)."}, "IL-1β": {"tested_on": "IL-1β", "experiment": "IL-1β inhibition in hPBMC, LPS challenge, ELISA", "assay_type": "cell-based, human", "settings": "1 μM, LPS 100 ng/mL for 20 hours", "procedure": "as §1"}, "[2]": {"experiment": "Hypoglycemic effect in normal lean mice", "assay_type": "in vivo, C57BL/6J lean male mice", "settings": "50 mg/kg body weight for 60 days, measured every third day", "procedure": "C57BL/6J lean male mice were fed, ad libitum, with laboratory rodent diet and purified water. Animals were treated with compound 9 at a dose of 50 mg/kg body weight for 60 days. Blood glucose was measured with an ACCUCHECK® glucose meter every third day during morning hours. No change in blood glucose levels was observed."}, "[3]": {"settings": "50 mg/kg for 60 days, compared to control animals"}},
  "data": [
    {"molecule": "CC(C)CC(N(C)C)C1(c2ccc(Cl)cc2)CCC1", "note": "(centres unmarked) [Sibutramine, reference compound]", "values": [
      {"measurement": "bodyweight gain", "setting": "[1]; 5 mg/kg bw once daily for 60 days", "value": "Reduced Bodyweight Gain"}
    ]},
    {"molecule": "CN(C)C(=O)[C@@H](N)Cc1ccc(Oc2ccc(CCC(=O)NO)cc2)cc1.Cl", "note": "[compound 9, L-2-amino-3-{4-[4-(2-hydroxycarbamoylethyl)-phenoxy]-phenyl}-N,N-dimethylpropionamide hydrochloride]", "values": [
      {"measurement": "body weight", "setting": "[1]; 50 mg/kg body weight once daily for 60 days", "value": "lowered body weight"},
      {"measurement": "oral glucose tolerance", "setting": "[1]; 50 mg/kg for 60 days", "value": "improved"},
      {"measurement": "free fatty acid levels", "setting": "[1]; [3]", "value": "significantly lowered"},
      {"measurement": "triglyceride levels", "setting": "[1]; [3]", "value": "significantly lowered"},
      {"measurement": "inhibition of IL-6", "setting": "IL-6", "value": "inhibition"},
      {"measurement": "adipocyte differentiation (adipogenesis), compound alone", "setting": "3T3-L1 cells; 10 μM alone, Oil red O", "value": "not adipogenic"},
      {"measurement": "adipogenesis induced by PPARγ agonist, combined treatment", "setting": "3T3-L1 cells; compound 10 μM mixed with rosiglitazone 1 μM", "value": "blocks the adipogenesis process induced by PPARγ agonist"},
      {"measurement": "NO production", "setting": "LPS induced NO", "value": "doses dependently inhibited NO production"},
      {"measurement": "inhibition of IL-1β", "setting": "IL-1β", "value": "inhibition"},
      {"measurement": "blood glucose levels", "setting": "[2]", "value": "No change"}
    ]}
  ]
}
